“And” between values parts separate entries of the source, which are not always exact repeats. Identical values can stand only once. Toxic doses and inconclusive results are not listed.
System: L1210 leukemia ip in BDF1 mice, survival T/C
Experiment: NCI In Vivo Anticancer Drug Screen. Data for tumor model L1210 Leukemia (intraperitoneal) in B6D2F1 (BDF1) mice
Settings: endpoint: mean survival time, higher = longer survival
In short: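 Transplantable tumor model; survival measured in treated vs vehicle control mice. Value = treated/control.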

[1] = dose: 100.0 mg/kg/injection, schedule: Q01DX001 (ip), vehicle: saline
[2] = dose: 200.0 mg/kg/injection, schedule: Q01DX001 (ip), vehicle: saline
[3] = dose: 400.0 mg/kg/injection, schedule: Q01DX001 (ip), vehicle: saline
[4] = dose: 100.0 mg/kg/injection, schedule: Q01DX009 (ip), vehicle: Klucel (hydroxypropylcellulose) (HPC)
[5] = dose: 100.0 mg/kg/injection, schedule: Q04DX003 (ip), vehicle: saline
[6] = dose: 200.0 mg/kg/injection, schedule: Q01DX009 (ip), vehicle: Klucel (hydroxypropylcellulose) (HPC)
[7] = dose: 200.0 mg/kg/injection, schedule: Q04DX003 (ip), vehicle: saline
[8] = dose: 400.0 mg/kg/injection, schedule: Q01DX009 (ip), vehicle: Klucel (hydroxypropylcellulose) (HPC)
[9] = dose: 400.0 mg/kg/injection, schedule: Q04DX003 (ip), vehicle: saline
[10] = dose: 12.5 mg/kg/injection, schedule: Q04DX003 (ip), vehicle: saline
[11] = dose: 25.0 mg/kg/injection, schedule: Q04DX003 (ip), vehicle: saline
[12] = dose: 50.0 mg/kg/injection, schedule: Q04DX003 (ip), vehicle: saline
[13] = dose: 100.0 mg/kg/injection, schedule: Q04DX003 (ip), vehicle: Klucel (hydroxypropylcellulose) (HPC)
[14] = dose: 200.0 mg/kg/injection, schedule: Q04DX003 (ip), vehicle: Klucel (hydroxypropylcellulose) (HPC)
[15] = dose: 100.0 mg/kg/injection, schedule: Q01DX009 (ip), vehicle: saline with Tween-80
[16] = dose: 200.0 mg/kg/injection, schedule: Q01DX009 (ip), vehicle: saline with Tween-80
[17] = dose: 400.0 mg/kg/injection, schedule: Q01DX009 (ip), vehicle: saline with Tween-80
[18] = dose: 100.0 mg/kg/injection, schedule: Q04DX003 (ip), vehicle: saline with Tween-80
[19] = dose: 200.0 mg/kg/injection, schedule: Q04DX003 (ip), vehicle: saline with Tween-80
[20] = dose: 400.0 mg/kg/injection, schedule: Q04DX003 (ip), vehicle: saline with Tween-80

With `CSc1cc(C(=O)Nc2ccc(C3=NCCN3)cc2)ccc1C(=O)Nc1ccc(C2=NCCN2)cc1` the T/C (dose: 0.5 mg/kg/injection, schedule: Q01DX Z (ip), vehicle: carboxymethylcellulose (CMC)) was 109 % of control, the T/C (dose: 0.62 mg/kg/injection, schedule: Q01DX015 (ip), vehicle: methylcellulose (MC)) was 112 % of control and the T/C (dose: 1.25 mg/kg/injection, schedule: Q01DX015 (ip), vehicle: methylcellulose (MC)) was 108 % of control. For the same compound, the T/C (dose: 3.75 mg/kg/injection, schedule: Q01DX Z (ip), vehicle: carboxymethylcellulose (CMC)) was 203 % of control, the T/C (dose: 7.5 mg/kg/injection, schedule: Q01DX Z (ip), vehicle: carboxymethylcellulose (CMC)) was 231 % of control and the T/C (dose: 10.0 mg/kg/injection, schedule: Q01DX015 (ip), vehicle: methylcellulose (MC)) was 231 % of control. The T/C (dose: 10.0 mg/kg/injection, schedule: Q01DX Z (ip), vehicle: carboxymethylcellulose (CMC)) was 236 % of control, the T/C (dose: 15.0 mg/kg/injection, schedule: Q01DX Z (ip), vehicle: carboxymethylcellulose (CMC)) was 280 % of control and the T/C (dose: 20.0 mg/kg/injection, schedule: Q01DX015 (ip), vehicle: methylcellulose (MC)) was 286 % of control. For the same compound, the T/C (dose: 20.0 mg/kg/injection, schedule: Q01DX Z (ip), vehicle: carboxymethylcellulose (CMC)) was 287 % of control, the T/C (dose: 30.0 mg/kg/injection, schedule: Q01DX Z (ip), vehicle: carboxymethylcellulose (CMC)) was 178 % of control and the T/C (dose: 40.0 mg/kg/injection, schedule: Q01DX015 (ip), vehicle: methylcellulose (MC)) was 221 % of control. For the same compound, the T/C (dose: 40.0 mg/kg/injection, schedule: Q01DX Z (ip), vehicle: carboxymethylcellulose (CMC)) was 168 % of control, the T/C (dose: 50.0 mg/kg/injection, schedule: Q01DX Z (oral), vehicle: carboxymethylcellulose (CMC)) was 102 % of control and the T/C (dose: 100.0 mg/kg/injection, schedule: Q01DX Z (oral), vehicle: carboxymethylcellulose (CMC)) was 100 % of control. The T/C (dose: 150.0 mg/kg/injection, schedule: Q01DX001 (ip), vehicle: methylcellulose (MC)) was 167 % of control, the T/C (dose: 200.0 mg/kg/injection, schedule: Q01DX Z (oral), vehicle: carboxymethylcellulose (CMC)) was 104 % of control and the T/C (dose: 400.0 mg/kg/injection, schedule: Q01DX Z (oral), vehicle: carboxymethylcellulose (CMC)) was 95 % of control.

With `O=C(Nc1ccc2oc(=O)c3ccccc3c2c1)C(Cl)Cl` the T/C (dose: 15.0 mg/kg/injection, schedule: Q01DX015 (ip), vehicle: carboxymethylcellulose (CMC)) was 88 % of control, the T/C (dose: 30.0 mg/kg/injection, schedule: Q01DX015 (ip), vehicle: carboxymethylcellulose (CMC)) was 88 % of control and the T/C (dose: 60.0 mg/kg/injection, schedule: Q01DX015 (ip), vehicle: carboxymethylcellulose (CMC)) was 94 % of control. For the same compound, the T/C (dose: 100.0 mg/kg/injection, schedule: Q01DX001 (ip), vehicle: carboxymethylcellulose (CMC)) was 97 % of control, the T/C (dose: 120.0 mg/kg/injection, schedule: Q01DX015 (ip), vehicle: carboxymethylcellulose (CMC)) was 93 % of control and 96 % of control and the T/C (dose: 200.0 mg/kg/injection, schedule: Q01DX001 (ip), vehicle: carboxymethylcellulose (CMC)) was 109 % of control. The T/C (dose: 240.0 mg/kg/injection, schedule: Q01DX015 (ip), vehicle: carboxymethylcellulose (CMC)) was 98 % of control, the T/C (dose: 400.0 mg/kg/injection, schedule: Q01DX001 (ip), vehicle: carboxymethylcellulose (CMC)) was 103 % of control and the T/C (dose: 480.0 mg/kg/injection, schedule: Q01DX015 (ip), vehicle: carboxymethylcellulose (CMC)) was 98 % of control.

For `c1cc2c(cc1CCCCCCCCCCc1ccc3c(c1)CCC3)CCC2`, the T/C [1] was 97 % of control, the T/C [2] was 97 % of control and the T/C [3] was 89 % of control.

In the case of `S=C(c1ccccc1Cl)N1CCOCC1`, the T/C [1] is reported as 104 % of control, the T/C [2] is reported as 102 % of control and the T/C [3] is reported as 98 % of control.

With `O=C(Nc1cc(C(F)(F)F)ccc1Cl)c1ccc(Cl)cc1` the T/C [4] was 110 % of control, the T/C [5] was 103 % of control and the T/C [6] was 94 % of control. For the same compound, the T/C [7] was 114 % of control, the T/C [8] was 94 % of control and the T/C [9] was 106 % of control.

With `COc1cc2c(c(OC)c1OC)-c1ccc(SC)c(=O)cc1C(NC1OC(CO)C(O)C(O)C1O)CC2` (stereo not given) the T/C (dose: 12.5 mg/kg/injection, schedule: Q01DX005 (ip), vehicle: saline) was 100 % of control, the T/C (dose: 25.0 mg/kg/injection, schedule: Q01DX005 (ip), vehicle: saline) was 100 % of control and the T/C (dose: 50.0 mg/kg/injection, schedule: Q01DX005 (ip), vehicle: saline) was 112 % of control and 119 % of control. The T/C (dose: 100.0 mg/kg/injection, schedule: Q01DX005 (ip), vehicle: saline) was 116 % of control.

For `O=[N+]([O-])c1ccc(N/N=C/c2cc(Cl)cc(Cl)c2)c([N+](=O)[O-])c1`, the T/C [1] was 100 % of control, the T/C [2] was 105 % of control and the T/C [3] was 96 % of control.

With `NC(CS)=NC1CCCC1` the T/C [10] was 108 % of control, the T/C [11] was 115 % of control and the T/C [12] was 112 % of control.

`[N-]=[N+]=C1C(C(=O)c2ccccc2)=NN=C1c1ccccc1` was tested, and the T/C (dose: 50.0 mg/kg/injection, schedule: Q04DX003 (ip), vehicle: Klucel (hydroxypropylcellulose) (HPC)) was 97 % of control, the T/C [13] was 104 % of control and the T/C [14] was 108 % of control.

In the case of `c1ccc(N2CCNCC2)cc1`, the T/C (dose: 5.0 mg/kg/injection, schedule: Q01DX001 (ip), vehicle: saline) is reported as 98 % of control [middle of 5 runs], the T/C (dose: 6.25 mg/kg/injection, schedule: Q01DX001 (ip), vehicle: saline) is reported as 97 % of control and the T/C (dose: 6.25 mg/kg/injection, schedule: Q04DX003 (ip), vehicle: saline) is reported as 99 % of control. For the same compound, the T/C (dose: 10.0 mg/kg/injection, schedule: Q01DX001 (ip), vehicle: saline) was 102 % of control [middle of 5 runs], the T/C (dose: 12.5 mg/kg/injection, schedule: Q01DX001 (ip), vehicle: saline) was 92 % of control and the T/C [10] was 99 % of control. For the same compound, the T/C (dose: 20.0 mg/kg/injection, schedule: Q01DX001 (ip), vehicle: saline) was 98 % of control [middle of 5 runs], the T/C (dose: 25.0 mg/kg/injection, schedule: Q01DX001 (ip), vehicle: saline) was 97 % of control and the T/C [11] was 96 % of control. The T/C (dose: 40.0 mg/kg/injection, schedule: Q01DX001 (ip), vehicle: saline) was 104 % of control [middle of 5 runs], the T/C (dose: 80.0 mg/kg/injection, schedule: Q01DX001 (ip), vehicle: saline) was 92 % of control and 98 % of control and 115 % of control and the T/C [1] was 101 % of control.

In the case of `CC(C)=CC(=O)O`, the T/C [15] is reported as 95 % of control, the T/C [16] is reported as 98 % of control and the T/C [17] is reported as 104 % of control.

For `Cc1nc(SCc2ccc(Cl)cc2)[nH]c(=O)c1CC(C)O` (stereo not given), the T/C [5] was 97 % of control, the T/C [7] was 89 % of control and the T/C [9] was 89 % of control.

`O=C(CC(O)(C(F)(F)F)C(F)(F)F)c1ccccc1Cl` was tested, and the T/C [18] was 97 % of control, the T/C [19] was 101 % of control and the T/C [20] was 101 % of control.

In the case of `O=CN=C(CS(=O)(=O)O)c1ccccc1`, the T/C [12] is reported as 103 % of control, the T/C [5] is reported as 108 % of control and the T/C [7] is reported as 100 % of control. For the same compound, the T/C [9] was 102 % of control.

`COc1cc2c(cc1OC)C(=O)C(C(=O)c1ccccc1)C2` (stereo not given) was tested, and the T/C [13] was 89 % of control, the T/C [14] was 109 % of control and the T/C (dose: 400.0 mg/kg/injection, schedule: Q04DX003 (ip), vehicle: Klucel (hydroxypropylcellulose) (HPC)) was 94 % of control.

With `N=C(N)CCc1ccccc1` the T/C (dose: 75.0 mg/kg/injection, schedule: Q04DX003 (ip), vehicle: saline) was 99 % of control and the T/C (dose: 150.0 mg/kg/injection, schedule: Q04DX003 (ip), vehicle: saline) was 98 % of control.

In the case of `Cc1ccc(C(=O)c2ccccc2Cc2ccc3ccccc3c2)cc1`, the T/C (dose: 50.0 mg/kg/injection, schedule: Q01DX001 (ip), vehicle: saline) is reported as 100 % of control, the T/C [1] is reported as 94 % of control and the T/C [2] is reported as 96 % of control. For the same compound, the T/C [3] was 93 % of control.

With `CC(C)(C)NC(=O)Oc1ccc(-c2ccccc2)cc1` the T/C [4] was 99 % of control, the T/C [6] was 95 % of control and the T/C [8] was 95 % of control.

`CC1(C)C(=O)C(C)(C)C1=Nc1ccccc1` was tested, and the T/C [15] was 95 % of control, the T/C [18] was 108 % of control and the T/C [16] was 94 % of control. For the same compound, the T/C [19] was 106 % of control, the T/C [17] was 97 % of control and the T/C [20] was 106 % of control.

— PubChem BioAssay AID248 (DTP/NCI, 2004)
